From patent US12145947B2, “Pyrimidine based modulators and uses thereof” (Quanta Therapeutics, Inc., priority 2022, dated 2024)

Columns and labels:
KRAS G12D/RAF1 = biological target: T1, KRAS G12D/RAF1 (Homo sapiens, UniProt P01116, G12D); assay: Protein-protein interaction (PPI) HTRF assay KRAS G12D/RAF1; format: binding; details: Table 4
T1 construct: His6-MBP (N, cleaved yes); made in house; host or cells: E. coli
Experimental: Biotinylated KRAS wt and KRAS G12DNV proteins were expressed and purified in conditions similar to those previously reported (Tran, et al., 2021) (Zhang, et al., 2020). Briefly, KRAS (1-169) proteins were expressed in E. coli at 18° C. with an upstream TEV cleavage site (ENLFYQS (SEQ ID NO: 6)) followed an Avi tag sequence ([…] (SEQ ID NO: 7)). KRAS expression constructs contained both a His6 (SEQ ID NO: 8) and maltose-binding protein (MBP) tags at the N-terminus for Ni-NTA column purification prior to overnight TEV cleavage and MBP column purification. The avi-tagged NRAS expression construct contained both a His6 tag (SEQ ID NO: 8) and SUMO cleavage sige at the N-terminus for Ni-NTA column purification followed by His-ULPi digestion overnight. All avi-tagged RAS proteins were dialyzed into buffer containing ATP, biotin, and BirA followed by purification over a second Ni-NTA column and then run over a size exclusion HiLoad™ 26/600 Superdex™ column in 20 mM HEPES, pH 7.5, 300 mM NaCl, 5 mM MgCl2, and 1 mM TCEP. Fractions containing the protein of interest were pooled, concentrated, and confirmed by intact mass spectrometry. To prepare ‘GTP’ loaded KRAS and NRAS, biotinylated KRAS or NRAS was nucleotide exchanged from GDP-bound protein to GppNHp-bound (Jena Biosciences, NU-401-50) protein in the presence of alkaline phosphatase and excess GppNHp as previously described and the resulting nucleotide content was confirmed by HPLC reverse phase analytical chromatography (Donohue, et al., 2019) (Tran, et al., 2021).
His-tagged RAF1 (52-131) was similarly expressed in E. coli at 18° C. overnight with an upstream TEV cleavage site. His-tagged RAF1 expression construct contained both a His6 (SEQ ID NO: 8) and MBP tags at the N-terminus for Ni-NTA column purification followed by MBP-tagged TEV digestion overnight. RAF1 protein samples were further purified over a MBP column followed by a Ni-NTA column and a second MBP column. The fractions containing the protein of interest were pooled, concentrated, and further purified over a HiLoad™ 16/600 Superdex™ 75 pg size exclusion column into 20 mM HEPES, pH8.0, 200 mM NaCl, 5 mM TCEP.
When RAS proteins are in the active GTP-bound conformation, they bind the effector protein RAF1 at the N-terminus Ras-binding domain (RBD, residues 52-131) (Tran, et al., 2021). Homogenous time resolved fluorescence (HTRF) was used to monitor the interaction between wt or mutant KRAS and RAF1 or wt NRAS and RAFT. Compounds were assayed in the presence of KRAS G12D/V and RAF1 versus wt KRAS to assess activity against mutant and w.t. KRAS. Similarly, compounds were then assayed in the presence of w.t. NRAS and RAF1 to assess RAS isoform selectivity. In all assay formats, His-tagged RAF1 protein was incubated with the HTRF donor, anti-6His (“6His” disclosed as SEQ ID NO: 8) Tb Cryptate gold (Cisbio 61DB10RDF), and biotinylated RAS proteins were incubated with the HTRF acceptor, streptavidin-d2 (CisBio 610SADLA). The intensity of the fluorescence signal emitted is proportional to binding between the two proteins. The donor solution was prepared by mixing 16 nM His-tagged RAF1 in protein dilution buffer with 1:100 anti-6His (“6His” disclosed as SEQ ID NO: 8) Tb cryptate in PPI-Terbium detection buffer. 16 nM biotinylated RAS protein was diluted into protein dilution buffer (50 mM Tris-HCl pH 7.5, 150 mM NaCl, 0.1 mM MgCl2, 1 mM TCEP, 0.005% Tween20) and mixed with 1:2000 Streptavidin-d2 diluted in PPI-Terbium detection buffer (CisBio 61DBTORDF). 50× compound in DMSO was mixed with 16 nM KRAS-acceptor solution and incubated for 30 minutes at room temperature. After compound pre-incubation with KRAS, the RAF1 donor solution was added to the KRAS-acceptor solution and incubated for 1 hour at room temperature. The fluorescence signal emitted was monitored at 665 nm and 615 nm using an Envision multimode plate reader. […]

[1] = biological target: T2, GST-tagged KRAS-G12D (2-169) (Homo sapiens, UniProt P01116, G12D); assay: Nucleotide exchange assay (NEA), SOS-mediated, HTRF, KRAS G12D; format: biochemical; details: Table 4; IC50 extracted at 30 min
T2 construct: GST-tagged KRAS-G12D (2-169, Reaction Biology, MSC-11-539); purchased Reaction Biology MSC-11-539 (KRAS G12D); MSC-11-502 (SOS1cat)
Description: This activity is tightly regulated by GTPase activating proteins (GAPs) and guanine nucleotide exchange factors (GEFs). GEFs, such as SOS1/2, activate Ras proteins by exchanging GDP for GTP, thus returning Ras to its active conformation (Simanshu, Nissley, & McCormick, 2017). […] Homogenous time resolved fluorescence (HTRF) was used to detect SOS-mediated binding of a fluorescent GTP analog, GTP-DY-647P1 (Jena Biosciences NU-820-647P1) to GST-tagged KRAS-G12D (2-169, Reaction Biology, MSC-11-539) or to GST-tagged KRAS-G12V (2-169, Reaction Biology, MSC-11-540).
GST-tagged KRAS-G12D (2-169) and anti-GST MAb Tb Cryptate Gold (CisBio 61GSTTLB) were diluted into assay buffer (20 mM HEPES, pH 7.3, 150 mM NaCl, 5 mM MgCl2, 0.05% BSA 0.0025% NP40, 1 mM DTT) to prepare a 2.5× donor solution. 5× compound was added to the protein mixture and incubated for 1 h at RT. 2.5× acceptor solution containing SOSIcat (564-1049, Reaction Biology MSC-11-502) and GTP-DY-647P1 were then added to the donor KRAS mixture such that the final concentration of the reaction contained 5 nM GST-tagged KRAS-G12D (2-169), 20 nM SOScat, and 150 nM GTP. The reaction was monitored using at RT with the Envision multimode plate reader (Ex/Em 337/665, […]) up to 90 minutes at 5 minute intervals. To monitor KRAS-G12V Sos-mediated nucleotide exchange, 80 nM SOS was added to reaction instead of 20 nM. All other components were the same as previously described. Data was blanked to reactions without SOS1 and % inhibition was calculated such that DMSO only=0% and blank=100%. Curve fitting was done using a 4 parameter fit. Reported IC50 values were extracted at 30 min and 90 min for the KRAS-G12D and KRAS-G12V assays, respectively.
Curve fitting was done using a 4 parameter fit. NEA KRAS G12D IC50 (uM) values of selected compounds are depicted in Table 2 with compounds having a value <0.01 uM as ++++; >0.01 uM to 0.1 uM as +++; >0.1 uM to 1 uM as ++; >1 uM to 20 uM as +; and >20 uM as NA.

T1 sequence (P01116 with tags, fused parts or gaps isoform P01116-2 G12D): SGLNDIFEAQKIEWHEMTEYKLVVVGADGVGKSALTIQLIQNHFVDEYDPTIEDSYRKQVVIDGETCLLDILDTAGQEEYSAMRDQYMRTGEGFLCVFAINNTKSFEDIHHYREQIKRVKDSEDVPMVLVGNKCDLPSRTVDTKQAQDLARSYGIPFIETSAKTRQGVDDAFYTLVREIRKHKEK
T2 sequence (P01116 2-169 isoform P01116-2 G12D): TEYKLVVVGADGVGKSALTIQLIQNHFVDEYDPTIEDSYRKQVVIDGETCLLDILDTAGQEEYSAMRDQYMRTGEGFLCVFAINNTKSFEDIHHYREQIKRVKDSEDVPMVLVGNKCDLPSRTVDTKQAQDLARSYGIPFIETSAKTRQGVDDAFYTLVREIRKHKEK

| SMILES | IC50 (KRAS G12D/RAF1) [nM] | IC50 [1] [nM] |
| --- | --- | --- |
| CN(C)C(=O)c1nn2c(c1Cl)CN(c1nc(OC[C@@]34CCCN3C[C@H](F)C4)nc(N3CC4(C3)C(=O)Cc3ccccc34)c1C#N)CCC2 [Compound 37, 3-chloro-5-[5-cyano-2-[[(2R,8S)-2-fluoro-1,2,3,5,6,7-hexahydropyrrolizin-8-yl]methoxy]-6-(2′-oxospiro[azetidine-3,1′-indane]-1-yl)pyrimidin-4-yl]-N,N-dimethyl-4,6,7,8-tetrahydropyrazolo[1,5-a][1,4]diazepine-2-carboxamide] | > 100000 | > 20000 |
| N#Cc1c(N2CCC(O)C(O)CC2)nc(OC[C@@]23CCCN2C[C@H](F)C3)nc1N1CC2(CCc3sc(N)c(C#N)c32)C1 (stereo partly drawn) [Compound 38, 2-amino-1′-[5-cyano-6-(4,5-dihydroxyazepan-1-yl)-2-[[(2R,8S)-2-fluoro-1,2,3,5,6,7-hexahydropyrrolizin-8-yl]methoxy]pyrimidin-4-yl]spiro[5,6-dihydrocyclopenta[b]thiophene-4,3′-azetidine]-3-carbonitrile] | 1000 to 10000 | 10 to 100 |
| N#Cc1c(N2C[C@H]3CC[C@@H](C2)N3)nc(OCC2(CN3CCOCC3)CC2)nc1N1CC2(CCc3sc4[nH]cnc(=O)c4c32)C1 [Compound 39, 2-[[1-(morpholinomethyl)cyclopropyl]methoxy]-4-(12-oxospiro[7-thia-9,11-diazatricyclo[6.4.0.02,6]dodeca-1(8), 2(6), 10-triene-3,3′-azetidine]-1′-yl)-6-[(1R,5S)-3,8-diazabicyclo[3.2.1]octan-3-yl]pyrimidine-5-carbonitrile] | > 100000 | 100 to 1000 |
| CN(C)C(=O)c1nn2c(c1Cl)CN(c1nc(OC[C@@]34CCCN3C[C@H](F)C4)nc(N3CC4(CCc5sc6[nH]cnc(=O)c6c54)C3)c1C#N)CCC2 [Compound 44, 3-chloro-5-[5-cyano-2-[[(2R,8S)-2-fluoro-1,2,3,5,6,7-hexahydropyrrolizin-8-yl]methoxy]-6-(12-oxospiro[7-thia-9,11-diazatricyclo[6.4.0.02,6]dodeca-1(8), 2(6), 10-triene-3,3′-azetidine]-1′-yl)pyrimidin-4-yl]-N,N-dimethyl-4,6,7,8-tetrahydropyrazolo[1,5-a][1,4]diazepine-2-carboxamide] | > 100000 | 1000 to 20000 |
| N#Cc1c(N2C[C@H]3CC[C@@H](C2)N3)nc(OCC2(CN3CCOCC3)CC2)nc1N1CC2(C1)C(=O)CCc1ccccc12 [Compound 50, 4-[(1R,5S)-3,8-diazabicyclo[3.2.1]octan-3-yl]-2-[[1-(morpholinomethyl)cyclopropyl]methoxy]-6-(2′-oxospiro[azetidine-3,1′-tetralin]-1-yl)pyrimidine-5-carbonitrile] | > 100000 | 1000 to 20000 |
| N#Cc1c(N)sc2c1C1(CC2)CN(c2nc(OC[C@@]34CCCN3C[C@H](F)C4)nc(N3CCCC(C#N)CC3)c2F)C1 (stereo partly drawn) [Compound 51, 2-amino-1′-[6-(4-cyanoazepan-1-yl)-5-fluoro-2-[[(2R,8S)-2-fluoro-1,2,3,5,6,7-hexahydropyrrolizin-8-yl]methoxy]pyrimidin-4-yl]spiro[5,6-dihydrocyclopenta[b]thiophene-4,3′-azetidine]-3-carbonitrile] | 1000 to 10000 | 10 to 100 |
| N#Cc1c(N2C[C@H]3CC[C@@H](C2)N3)nc(OCC2(CN3CCOCC3)CC2)nc1N1CC2(C1)c1ccccc1CCC2O (stereo partly drawn) [Compound 53, 4-[(1R,5S)-3,8-diazabicyclo[3.2.1]octan-3-yl]-6-(2′-hydroxyspiro[azetidine-3,1′-tetralin]-1-yl)-2-[[1-(morpholinomethyl)cyclopropyl]methoxy]pyrimidine-5-carbonitrile] | > 100000 | 100 to 1000 |
| N#CNC1CCCN(c2nc(OC[C@@]34CCCN3C[C@H](F)C4)nc(N3CC4(CCc5sc(N)c(C#N)c54)C3)c2F)C1 (stereo partly drawn) [Compound 54, [1-[6-(2-amino-3-cyano-spiro[5,6-dihydrocyclopenta[b]thiophene-4,3′-azetidine]-1′-yl)-5-fluoro-2-[[(2R,8S)-2-fluoro-1,2,3,5,6,7-hexahydropyrrolizin-8-yl]methoxy]pyrimidin-4-yl]-3-piperidyl]cyanamide] | 100 to 1000 | 100 to 1000 |
| N#Cc1c(N2CCn3nncc3C2)nc(OC[C@@]23CCCN2C[C@H](F)C3)nc1N1CC2(CCc3sc(N)c(C#N)c32)C1 [Compound 55, 2-amino-1′-[5-cyano-6-(6,7-dihydro-4H-triazolo[1,5-a]pyrazin-5-yl)-2-[[(2R,8S)-2-fluoro-1,2,3,5,6,7-hexahydropyrrolizin-8-yl]methoxy]pyrimidin-4-yl]spiro[5,6-dihydrocyclopenta[b]thiophene-4,3′-azetidine]-3-carbonitrile] | 10000 to 100000 | 100 to 1000 |
| N#Cc1c(N2C[C@H]3CC[C@@H](C2)N3)nc(OCC2(CN3CCC(F)(F)CC3)CC2)nc1N1CC2(CCCc3sc(N)c(C#N)c32)C1 [Compound 56, 2-amino-1′-[5-cyano-6-[(1R,5S)-3,8-diazabicyclo[3.2.1]octan-3-yl]-2-[[1-[(4,4-difluoro-1-piperidyl)methyl]cyclopropyl]methoxy]pyrimidin-4-yl]spiro[6,7-dihydro-5H-benzothiophene-4,3′-azetidine]-3-carbonitrile] | 100 to 1000 | < 10 |
